# Data published in PMC8754229 (Journal of Virology, 2022).
# Legend:
# SARS-CoV-2 M^pro = SARS-CoV-2 M^pro (Severe acute respiratory syndrome coronavirus 2, UniProt P0DTD1); assay type: biochemical
# [1] = statement in Discussion, no test described, ref not given; cited from earlier work
Compound,Inhibition against M^pro (in words) (SARS-CoV-2 M^pro),Cytotoxicity (in words) [1]
maltopentaose,none of them showed potent inhibition,–
CC(C)=CC[C@@H](O)C1=CC(=O)c2c(O)ccc(O)c2C1=O [Shikonin],–,strong cytotoxicity
CC(=O)O[C@H]1[C@H](OCCc2ccc(O)c(O)c2)O[C@H](CO[C@@H]2O[C@H](CO)[C@@H](O)[C@H](O)[C@H]2O)[C@@H](OC(=O)/C=C/c2ccc(O)c(O)c2)[C@@H]1OC[C@@H]1O[C@@H](C)[C@H](O)[C@@H](O)[C@H]1O [tubuloside A],none of them showed potent inhibition,–
